Experimental data reported in US20060233857A1, “Degradable elastomeric network” (priority 2005, published 2006).
Counter-ions that a name gives are not always drawn. Like-named read-outs stand apart in the source and are kept apart here.

Legend:
[1] = Diffusivity by Pulsed Field Gradient Nuclear Magnetic Resonance; format: physicochemical; conditions: 37° C.
Description: Goserelin acetate and vitamin B12 were incorporated into cylindrical polymer matrices as described in Example 2, but using only PEGD 24000 g/mol. Goserelin acetate is a peptide having the sequence Pyr-His-Trp-Ser-Tyr-D-Ser(tBu)-Leu-Arg-Pro-Azagly-NH2 acetate salt. Its molecular weight is 1269 g/mol and it has a water solubility of 20 mg/mL at 25° C. […] The diffusivities of these two compounds was determined at 37° C. using Pulsed Field Gradient Nuclear Magnetic Resonance. The measured diffusivities were 2.8±0.1 and 2.6±0.1 (10^−6) cm^2/s for vitamin B12 and goserelin, respectively. These diffusivities are essentially the same. In vitro release experiments on these cylinders were performed as described in Example 2. […] As the diffusivities of the two compounds are very similar, and degradation of the polymer occurs slowly, release cannot be controlled by either diffusion or polymer degradation. The higher release rate must therefore be a result of the higher aqueous solubility of the goserelin acetate. Thus, release is driven by the dissolution rate of the compound in the aqueous regions of the polymer matrix.

[2] = In vitro release of goserelin acetate and vitamin B12 from ASCP 2700 / PEGD 24000 cylinders; format: physicochemical; conditions: 90% ASCP 2700 and 10% PEGD 24000 cylinders, loading 1 w/w %
Text: Acrylated star-poly(ε-caprolactone-co-D,L-lactide) (ASCP) of molecular weight 2700 g/mol was co-dissolved in tetrahydrofuran with poly(ethylene glycol)diacrylate (PEGD) of molecular weight 4000 g/mol or 24000 g/mol. The total polymer concentration was 1 g/mL THF. The mass ratio of PEGD:ASCP was 1:9 (10% PEGD). In this solution was suspended vitamin B12 particles that had been ground and sieved to less than 100 μm in diameter. The total mass of vitamin B12 to polymer was 1:99 (1% vitamin B12). 1.5 w/w % of 2,2-dimethoxy-2-phenyl-acetophenone (DMPA) photoinitiator was also included. The suspension was injected into a 1.8 mm diameter glass tube to a length of 34 cm and sealed with parafilm. […] The concentration of vitamin B12 in the release samples was measured with a Spectromax microplate spectrophotometer. 0.250 mL of vitamin B12 sample per well was added into a 96 well microplate, and the absorbance of these samples was read at 381 nm. […]
Goserelin acetate and vitamin B12 were incorporated into cylindrical polymer matrices as described in Example 2, but using only PEGD 24000 g/mol. […] The diffusivities of these two compounds was determined at 37° C. using Pulsed Field Gradient Nuclear Magnetic Resonance. The measured diffusivities were 2.8±0.1 and 2.6±0.1 (10^−6) cm^2/s for vitamin B12 and goserelin, respectively. […]

[3] = cited from earlier work
[4] = Effect of cross-linking UV irradiation on vitamin B12 absorbance; format: physicochemical; conditions: 10 mW/cm^2 long-wave UV 5 minutes, with photo-initiator, in ethyl acetate or non-acrylated polymer solution
Description: As vitamin B12 absorbs within the UV region, it was important to determine whether the cross-linking conditions affected the vitamin B12. The vitamin B12 was therefore suspended in ethyl acetate in the presence of the photo-initiator, and in a non-acrylated polymer solution also containing the photo-initiator, and subjected to 10 mW/cm^2 long-wave UV irradiation for 5 minutes. The vitamin B12 was then filtered from solution, dried, and dissolved in varying concentrations and their absorbance measured and compared to that of solutions prepared from the as-received vitamin B12.

| Compound | diffusivity [1] | release rate compared with vitamin B12 (in words) [2] | water solubility ([3]; 25° C.) [mg/mL] | change in the absorbance of the vitamin B12 due to cross-linking conditions [4] | water solubility ([3]; temperature not given) [mg/mL] |
| --- | --- | --- | --- | --- | --- |
| CC(C)C[C@H](NC(=O)[C@@H](COC(C)(C)C)NC(=O)[C@H](Cc1ccc(O)cc1)NC(=O)[C@H](CO)NC(=O)[C@H](Cc1c[nH]c2ccccc12)NC(=O)[C@H](Cc1cnc[nH]1)NC(=O)[C@@H]1CCC(=O)N1)C(=O)N[C@@H](CCCNC(=N)N)C(=O)N1CCC[C@H]1C(=O)NNC(N)=O [Goserelin acetate, Pyr-His-Trp-Ser-Tyr-D-Ser(tBu)-Leu-Arg-Pro-Azagly-NH2 acetate salt] | 2.6±0.1 (10^−6) cm^2/s | appreciably faster rate | 20 | – | – |
| vitamin B12 | 2.8±0.1 (10^−6) cm^2/s | – | – | no significant change | 12.5 |
